{"source": "paper PMC12681940", "about": "“Schisandrin B Targets PXR to Enhance Bile Acid Metabolism and Alleviate ANIT-Induced Cholestatic Liver Injury via Dual Pathways” (International Journal of Biological Sciences, 2026)", "molecular_target": "T1, pregnane X receptor (PXR) (Homo sapiens, UniProt O75469)", "T1 construct": "gene NR1I2", "T1 sequence (O75469 106-434)": "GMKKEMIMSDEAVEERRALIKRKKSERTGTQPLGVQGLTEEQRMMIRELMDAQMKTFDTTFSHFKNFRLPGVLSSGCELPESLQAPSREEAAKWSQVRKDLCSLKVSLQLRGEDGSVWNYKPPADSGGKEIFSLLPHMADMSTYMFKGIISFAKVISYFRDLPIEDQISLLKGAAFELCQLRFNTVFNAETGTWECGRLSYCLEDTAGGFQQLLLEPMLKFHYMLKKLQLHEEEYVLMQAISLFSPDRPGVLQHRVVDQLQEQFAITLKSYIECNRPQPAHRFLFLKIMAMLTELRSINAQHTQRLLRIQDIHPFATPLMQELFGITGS", "test": "biochemical", "note": "pKd: −log10 of the molar value."}
{"compound": "COc1cc2c(c(OC)c1OC)-c1c(cc3c(c1OC)OCO3)CC(C)C(C)C2", "note": "(stereo not shown) [Sin B, Schisandrin B]", "values": [{"measurement": "pKd", "result": 5.18}]}
